From patent US9758787B2, “Engineering microorganisms” (DSM NUTRITIONAL PRODUCTS AG, priority 2011, dated 2017)

How the values were obtained:
[1] = test system: transformed ONC-T18 strains bearing the zeocin-resistance gene expression cassette; assay: Zeocin sensitivity, spotted colonies on agar plates, transformed strains (Example 8); assay type: cell-based, Thraustochytrium sp. ONC-T18; conditions: 5000 μg/mL zeocin
Description: (§1) A very small amount of inoculum of zeocin-resistant strains that had been transferred three times via colony passages on zeocin/ONC-T18-GM0 agar plates (as well as their parental strain or the wild type strain) was picked from colonies using a 10 μL pipette tip and re-suspended in 50 μL sterilized water in a 200 μL PCR tube. One μL of the cell suspension was spotted on ONC-T18-GM0 agar plates containing 18 g/L sea salt (15 g/L agar) and zeocin at a concentration ranging from 0 to 5000 μg/mL (Invitrogen, CA, USA). The diameters of the spotted colonies were measured on day 1, day 3, day 5, day 7, and day 8.

[2] = cited from earlier work
[3] = test system: parental strain (the wild type strain) ONC-T18; assay: Zeocin sensitivity, spotted colonies on agar plates, parental strain (Example 8); assay type: cell-based, Thraustochytrium sp. ONC-T18; conditions: ONC-T18-GM0 agar plates, 18 g/L sea salt
Description: as §1

[4] = test system: Thraustochytrium sp. ONC-T18; assay: Effects of zeocin and salinity on colony numbers and colony diameter of ONC-T18 (Example 4); assay type: cell-based; conditions: for colony numbers: 10 days; for colony numbers / colony growth rates (diameter in mm): mean of two plates
Description: One hundred μL of ONC-T18 cell suspension diluted at 1:500 from a 2-day culture were spread onto ONC-T18-GM0 plates containing various concentrations of antibiotic zeocin and sea salt. Inoculated plates were incubated in a 25° C. incubator for 10 days. The numbers of the colonies on each plate were counted. […] In plates containing 8.5 g/L sea salt without zeocin, only one colony was observed. In plates containing 18 g/L sea salt without zeocin, colony numbers were similar to that of plates containing 35 g/L sea salt without zeocin. […] Therefore, for this work, 18 g/L sea salt was used to make ONC-T18-GM0 for selection of ONC-T18 transformants transformed with constructs bearing a zeocin-resistant gene expression cassette.

[5] = test system: wild type strain of ONC-T18; assay: Zeocin as mutagenic agent on ONC-T18 agar plates (Example 13); assay type: cell-based, Thraustochytrium sp. ONC-T18
Description: The marine protist wild type strain of ONC-T18 was chosen as a model system to test if zeocin would be effective to induce mutagenesis in this strain. One full loop of the inocula of ONC-T18, growing in the agar plates containing ONC-T18-GM0 medium[5 g/L yeast extract, 5 g/L peptone, 10 g/L D(+)-glucose, 35 g/L artificial sea salt, 1.25 mg/L trace elements (5 g/L NaH2PO4.H2O, 3.15 g/L FeCl3.6H2O, 4.36 g/L Na2EDTA.2H2O, 0.6125 mg/L CuSO4.5H2O, 0.0597 g/L Na2MoO4.2H2O, 0.022 g/L ZnSO4.7H2O, 0.01 g/L CoCl2.6H2O, 0.18 g/L MnCl2.4H2O, 13 μg/L H2SeO3, 2.7 mg/L NiSO4.6H2O, 1.84 mg/L Na3VO4 and 1.94 mg/L K2CrO4), 1.25 mg/L vitamins (1 mg/L vitamin B12, 1 mg/L biotin, 0.20 g/L thiamine HCl) and 20 g agar per liter], was inoculated into 50 mL liquid ONC-T18-GM0 medium, and incubated in a shaker incubator at 25° C. at 250 rpm for 36 hours. Half a milliliter of culture was transferred into a 1.5 mL tube and vortexed at full speed for 30 seconds, and then diluted in 50 mL sterilized water. One hundred microliters of the diluted inocula were respectively spread on the agar plates containing zeocin at various concentrations (0, 10, 30, 50, and 100 μg/mL). Plates were incubated at 25° C. incubator. The emergence and development of the colonies were observed daily. […] Under these conditions, zeocin was effective within the range of at least 10-200 μg/mL; higher concentrations may well also be effective. For example, concentrations in the range of 200-500 μg/mL or higher could work. […] Under the particular conditions utilized in the present Example, zeocin worked best at 50 μg/mL.

[6] = test system: Thraustochytrium sp. ONC-T18; assay: Effects of different antibiotics on growth of ONC-T18 on ONC-T18-GM0 agar plates (Example 3); assay type: cell-based; set-up: sensitivity of ONC-T18 cells to zeocin: dose or concentration left out as unconfirmed
Description: Thraustochytrium sp. ONC-T18 was grown on agar plates (20 g agar per liter ONC-T18-GM0). One loop of inoculum of ONC-T18 was inoculated into 50 mL of liquid ONC-T18-GM0, and the culture was incubated in a shaker incubator at 25° C. at 250 rpm for 36 hours. Half a milliliter of the culture was transferred into a 1.5 mL tube and vortexed at full speed for 30 seconds to break down cell clusters, then diluted in 50 mL sterilized water. One hundred microliters of the resulting solution was spread onto each ONC-T18-GM0 medium plate. Each plate contained one of various antibiotics at one of various concentrations. Plates were incubated at 25° C. and emergence and development of colonies were observed daily.

[7] = test system: wild type ONC-T18 strains; assay: Growth on zeocin plates after six colony passages without zeocin, wild type (Example 12); assay type: cell-based, Thraustochytrium sp. ONC-T18; conditions: zeocin 200 μg/mL media
Excerpt: (§2) Transgene stability is important for certain applications of genetic engineering in industrial microbial strain improvement programs where microorganisms are used in pharmaceutical or industrial processes, and where product quantity and quality are paramount. We therefore carried out transgene stability estimate assays of transformed ONC-T18 strains. As for the growth rate assays described in Example 7, inocula of four strains of each transformation as well as their ancestor wild type strains were spotted on ONC-T18-GM0 agar plates in the absence of zeocin and incubated at 25° C. for seven days. (Each transformation had been performed using one of the five different plasmid constructs, each of which bears various zeocin-resistant gene expression cassettes driven by a combination of different promoters and terminators). Then, using the same method, strains were transferred on a new fresh ONC-T18-GM0 agar plate and incubated at 25° C. for 7 days; colony passages were carried out 6 times. Finally, strains were transferred back onto ONC-T18-GM0 agar plates either without or with zeocin at a concentration of 200 μg/mL media.

[8] = test system: transformed ONC-T18 strains; assay: Growth on zeocin plates after six colony passages without zeocin, transformed strains (Example 12); assay type: cell-based, Thraustochytrium sp. ONC-T18; conditions: zeocin 200 μg/mL media
Excerpt: as §2

Cc1c(N)nc([C@H](CC(N)=O)NC[C@H](N)C(N)=O)nc1C(=O)N[C@H](C(=O)N[C@H](C)[C@@H](O)[C@H](C)C(=O)N[C@H](C(=O)NCCC1=N[C@@H](c2nc(C(=O)NCCCCN=C(N)N)cs2)CS1)[C@@H](C)O)[C@@H](O[C@@H]1O[C@@H](CO)[C@@H](O)[C@H](O)[C@@H]1O[C@H]1O[C@H](CO)[C@@H](O)[C@H](OC(N)=O)[C@@H]1O)c1cnc[nH]1 [Zeocin, phleomycin D1]
growth of transformed strains ([1]; compared with 1000 μg/mL or less): most strains grew remarkably slower
zeocin resistance of some transformant strains ([1]; e.g., FIG. 13 legend): highly resistant
stability of zeocin ([2]; high salt concentrations): unstable at high salt concentrations
solubility of zeocin ([2]; water): water soluble
zeocin concentration at which the parental strain grew [3]: ≤ 30 µg/mL
zeocin concentration that completely inhibited growth of ONC-T18 ([4]; ONC-T18-GM0 agar plates containing 18 g/L sea salt): 30 µg/mL
zeocin concentration needed for complete inhibition of ONC-T18 ([4]; ONC-T18-GM0 agar plates containing 35 g/L sea salt): 100 µg/mL
colony numbers ([4]; salt 5 g/L, zeocin 10 μg/mL): 0
colony growth rates (diameter in mm) ([4]; salt 5 g/L, zeocin 10 μg/mL): 0 mm
colony numbers ([4]; salt 5 g/L, zeocin 30 μg/mL): 0
colony growth rates (diameter in mm) ([4]; salt 5 g/L, zeocin 30 μg/mL): 0 mm
colony numbers ([4]; salt 5 g/L, zeocin 50 μg/mL): 0
colony growth rates (diameter in mm) ([4]; salt 5 g/L, zeocin 50 μg/mL): 0 mm
colony numbers ([4]; salt 5 g/L, zeocin 100 μg/mL): 0
colony growth rates (diameter in mm) ([4]; salt 5 g/L, zeocin 100 μg/mL): 0 mm
colony numbers ([4]; salt 8.5 g/L, zeocin 10 μg/mL): 0
colony growth rates (diameter in mm) ([4]; salt 8.5 g/L, zeocin 10 μg/mL): 0 mm
colony numbers ([4]; salt 8.5 g/L, zeocin 30 μg/mL): 0
colony growth rates (diameter in mm) ([4]; salt 8.5 g/L, zeocin 30 μg/mL): 0 mm
colony numbers ([4]; salt 8.5 g/L, zeocin 50 μg/mL): 0
colony growth rates (diameter in mm) ([4]; salt 8.5 g/L, zeocin 50 μg/mL): 0 mm
colony numbers ([4]; salt 8.5 g/L, zeocin 100 μg/mL): 0
colony growth rates (diameter in mm) ([4]; salt 8.5 g/L, zeocin 100 μg/mL): 0 mm
colony numbers ([4]; salt 18 g/L, zeocin 10 μg/mL): 11
colony growth rates (diameter in mm) ([4]; salt 18 g/L, zeocin 10 μg/mL): 4.1 mm
colony numbers ([4]; salt 18 g/L, zeocin 30 μg/mL): 0
colony growth rates (diameter in mm) ([4]; salt 18 g/L, zeocin 30 μg/mL): 0 mm
colony numbers ([4]; salt 18 g/L, zeocin 50 μg/mL): 0
colony growth rates (diameter in mm) ([4]; salt 18 g/L, zeocin 50 μg/mL): 0 mm
colony numbers ([4]; salt 18 g/L, zeocin 100 μg/mL): 0
colony growth rates (diameter in mm) ([4]; salt 18 g/L, zeocin 100 μg/mL): 0 mm
colony numbers ([4]; salt 35 g/L, zeocin 10 μg/mL): 22.5
colony growth rates (diameter in mm) ([4]; salt 35 g/L, zeocin 10 μg/mL): 4.1 mm
colony numbers ([4]; salt 35 g/L, zeocin 30 μg/mL): 11
colony growth rates (diameter in mm) ([4]; salt 35 g/L, zeocin 30 μg/mL): 1.9 mm
colony numbers ([4]; salt 35 g/L, zeocin 50 μg/mL): 5
colony growth rates (diameter in mm) ([4]; salt 35 g/L, zeocin 50 μg/mL): 0.6 mm
colony numbers ([4]; salt 35 g/L, zeocin 100 μg/mL): 0
colony growth rates (diameter in mm) ([4]; salt 35 g/L, zeocin 100 μg/mL): 0 mm
colonies seen per plate ([5]; 50 μg/mL zeocin): Only a few of colonies were seen
colony sectors with visible colony-morphology changes ([5]; 50 μg/mL zeocin): observed in some of the colonies
colony numbers per plate ([5]; 10, 30, and 50 μg/mL zeocin): gradually reduced
sizes of the colonies ([5]; 30 to 50 μg/mL zeocin, six days post inoculation): gradually decreased
concentration at which zeocin worked best as mutagen ([5]; conditions of Example 13): 50 µg/mL
concentration range in which zeocin was effective as mutagen ([5]; conditions of Example 13): 10 to 200 µg/mL
sensitivity of ONC-T18 cells to zeocin [6]: highly sensitive
effect on growth of ONC-T18 (summary in words) ([6]; ONC-T18-GM0 agar plates): significantly inhibited the growth
growth of wild type strains [7]: none of the wild type strains were able to grow
growth of transformed strains [8]: only the transformed strains grew well
